The text below walks through data of patent publication US10363262B1, “Composition for treating wound comprising gypenoside LXXV” (Intelligent Synthetic Biology Center, priority 2018, dated 2019).

Series [1] deals with HaCaT keratinocytes. The series is described as follows: MTT analysis of proliferation of HaCaT keratinocytes. In kind it is cell-based. The following applies: 48 hours. The procedure: HaCaT keratinocytes were treated with major ginsenosides (e.g., Rb1, Rd, Re, and Rg1) and other ginsenosides (e.g., C-K, F1, F2, G17, G75, PPD, PPT, Rg2, Rg3, Rh1, and Rh2) at a concentration of 0.01 μM to 20 μM for 48 hours and then subjected to MTT analysis (FIG. 1A). As the control group, DMSO was used.

For series [2], the system named is HaCaT keratinocytes. The experiment in a line: scratch wound closure assay (migration of HaCaT keratinocytes). In kind it is cell-based. Here is the method:
Specifically, HaCaT keratinocytes were cultured in a 6-well plate and the plate was scratched using a 200 μL micropipette tip. The remainder was washed with PBS and the cells were cultured for 24 hours, treated with 10 μM ginsenoside or DMSO, and the gap regions were measured (FIG. 1B).
(§1) Each cell was seeded into a 96-well plate and cultured at 37° C. for 48 hours. The cultured cells were treated with G75, MA, or DMSO at a concentration of 5 μM or 10 μM. After 48 hours, the proliferation of these cells was confirmed using the non-radioactive cell proliferation assay kit (Promega, WI, USA), and migration of these cells was confirmed in the same manner as in Example 1-2 (FIG. 2).

Series [3] deals with HaCaT keratinocytes. The series is described as follows: non-radioactive cell proliferation assay, HaCaT keratinocytes. In kind it is cell-based. The procedure:
as §1

Series [4] has as its system excision wound mouse model. The experiment in a line: in vivo wound closure activity in excision wound mouse model. The following applies: ICR mice, once a day for 9 days, topical. Here is the method:
The in vivo wound closure activity was measured in an excision wound mouse model.
Eight-week-old male ICR mice were purchased from Narabiotech (Korea), acclimatized for one week, and used in the experiment. Two full-thickness circular wounds (diameter: 5 mm) were created on the dorsal region of each mouse, and the progressive changes in wound closure were measured relative to the original wound area. G75 (5 μM/wound) or MA (10 μM/wound) was then applied on each wound area once a day for 9 days. DMSO-propylene glycol was used as a vehicle control.

Series [5] relates to dorsal excisional wound tissue. The experiment in a line: RNA sequencing of dorsal excisional wound tissue. In kind it is in vivo, mouse. The following applies: third day after treatment; p 0.05 or below and change of 1.7-fold or greater. Here is the method:
(§2) To examine the process of G75 involvement in wound recovery, RNA sequencing was performed. After creating an excision wound on the dorsal area of each mouse, the wound was treated with G75 or the vehicle control, and RNA was isolated from the dorsal excisional wound tissue on the third day after the treatment and analyzed. When the p value was 0.05 or below and there was a change of 1.7-fold or greater, the change was considered to significant.

For series [6], the system named is Angpt1. The series is described as follows: RNA sequencing, growth factor mRNA level in wound tissue. The following applies: third day after treatment, versus vehicle control. The series is classed as in vivo, mouse. Here is the method: as §2
(§3) To confirm the effect of G75 on the growth factors involved in wound healing, the mRNA levels of growth factors were measured based on the results of RNA sequencing analysis.

In series [7] the test system is CTGF. Described as above. The following applies: third day after treatment, versus vehicle control. In kind it is in vivo, mouse. The procedure:
as §2, §3

Series [8] has as its system Csf2. Described as above. In kind it is in vivo, mouse. The following applies: third day after treatment, versus vehicle control. Here is the method: as §2, §3
Series [9] concerns Fgf10. The series is described as above. The series is classed as in vivo, mouse. The following applies: third day after treatment, versus vehicle control. The procedure:
as §2, §3

Series [10] relates to Fgf2. The series is described as above. In kind it is in vivo, mouse. The following applies: third day after treatment, versus vehicle control. Here is the method: as §2, §3
The test system of series [11] is Fgf7. Described as above. The following applies: third day after treatment, versus vehicle control. In kind it is in vivo, mouse. Here is the method: as §2, §3
In series [12] the test system is Hbegf. The description is as above. The series is classed as in vivo, mouse. The following applies: third day after treatment, versus vehicle control. The procedure: as §2, §3
Series [13] concerns Hgf. The series is described as above. The series is classed as in vivo, mouse. The following applies: third day after treatment, versus vehicle control. The procedure: as §2, §3
Series [14] has as its system Igf1. The series is described as above. In kind it is in vivo, mouse. The following applies: third day after treatment, versus vehicle control. The procedure:
as §2, §3

Series [15] relates to Tgf alpha. The description is as above. The series is classed as in vivo, mouse. The following applies: third day after treatment, versus vehicle control. Here is the method: as §2, §3
The test system of series [16] is Tgf beta1. The series is described as above. The series is classed as in vivo, mouse. The following applies: third day after treatment, versus vehicle control. The procedure:
as §2, §3

In series [17] the test system is Vegf alpha. The description is as above. In kind it is in vivo, mouse. The following applies: third day after treatment, versus vehicle control. Here is the method:
as §2, §3

Series [18] relates to CTGF protein. The experiment in a line: western blot of CTGF protein in wound skin tissue. In kind it is in vivo, mouse. The following applies: after 3 days. The procedure: To examine whether the G75 treatment increases the expression level of CTGF protein, each wound was treated with G75, and after 3 days, the skin tissue was collected and subjected to western blot.
A general note: Immunoblotting shows a protein as a band on a membrane.

In series [19] the test system is CTGF. The series is described as follows: ELISA assay of CTGF production by human dermal fibroblasts. The series is classed as cell-based. The following applies: supernatant of human dermal fibroblasts. (ELISA stands for enzyme-linked immunosorbent assay.)
For series [20] the following is noted: compared with ginsenosides having a large size (about 1,000 Da); cited from earlier work.
Series [21] deals with human dermal fibroblasts. The series is described as follows: non-radioactive cell proliferation assay, human dermal fibroblasts. The series is classed as cell-based. The following applies: 10 μM, 48 hours. The procedure:
as §1

In series [22] the test system is human dermal fibroblasts. The series is described as follows: proliferation of human dermal fibroblasts treated with CTGF. The series is classed as cell-based.

With `CC(C)=CCC[C@](C)(O[C@@H]1O[C@H](CO[C@@H]2O[C@H](CO)[C@@H](O)[C@H](O)[C@H]2O)[C@@H](O)[C@H](O)[C@H]1O)[C@H]1CC[C@]2(C)[C@@H]1[C@H](O)C[C@@H]1[C@@]3(C)CC[C@H](O)C(C)(C)[C@@H]3CC[C@]12C` [G75, gypenoside LXXV], the “cell proliferation effect relative to the control group” value in series [1] (0.01 μM to 20 μM, DMSO control) is “about 136.8%”. In series [1] (0.01 μM to 20 μM, compared to other ginsenosides / control), the cell proliferation effect result is “highest cell proliferation effect”. For the same molecule, in series [1], the “concentration at which the highest cell proliferation effect was shown” value was determined as 10 µM. Besides, the cell migration result in series [2] (Example 2-1, 5 μM) is listed as “significant effect”; in series [2] (Example 2-1, 10 μM) it was “significant effect”. Besides, the “migration effect (gap regions)” value in series [2] (HaCaT keratinocytes, 10 μM, compared to DMSO control) is “highest migration effect”. Besides, in series [3] (cell proliferation and cell migration, HaCaT keratinocytes and human dermal fibroblasts), the “effects compared with MA at the same concentration” value is “superior effects to MA”. The “wound area compared to vehicle control” value in [4] (5 μM/wound) was “wound areas became smaller”. The “number of genes whose expression level was changed” value in series [5] was 1048. For the same molecule, the “Fold change Angpt1 mRNA” value in series [6] worked out at 1.796. Moreover, the “Fold change CTGF mRNA” value in series [7] stood at 1.879. For the same molecule, the “Fold change Csf2 mRNA” value in series [8] worked out at 5.545. The “Fold change Fgf10 mRNA” value in series [9] came to 1.750. Besides, the “Fold change Fgf2 mRNA” value in series [10] is 8.143. The “Fold change Fgf7 mRNA” value in series [11] is reported as 1.789. For the same molecule, the “Fold change Hbegf mRNA” value in series [12] came out at 1.267. For the same molecule, the “Fold change Hgf mRNA” value in series [13] is given as 1.191. Also, the “Fold change Igf1 mRNA” value in series [14] is 1.367. Moreover, the “Fold change Tgf alpha mRNA” value in [15] came to 1.504. Also, in series [16], the “Fold change Tgf beta1 mRNA” value was 1.392. The “Fold change Vegf alpha mRNA” value in series [17] amounted to 1.281. Also, in series [18], the “expression level of CTGF protein” value is recorded as “significantly increased”. In [19], the “amount of CTGF production” value was “increased the amount of CTGF production”. In addition, in series [20], the “in vivo absorption rate” value is listed as “greater in vivo absorption rate”.

In the case of madecassoside [reference compound], the cell proliferation result in series [3] (HaCaT keratinocytes, 10 μM, 48 hours) is “slight effect”; in series [21], “slight effect”. Moreover, the “wound area compared to vehicle control” value in series [4] (10 μM/wound) is “wound areas became smaller”.

B1: CTGF: connective tissue growth factor, applied to human dermal fibroblasts (protein, UniProt P29279 27-349, looked up)
CCN family member 2: QNCSGPCRCPDEPAPRCPAGVSLVLDGCGCCRVCAKQLGELCTERDPCDPHKGLFCHFGSPANRKIGVCTAKDGAPCIFGGTVYRSGESFQSSCKYQCTCLDGAVGCMPLCSMDVRLPSPDCPFPRRVKLPGKCCEEWVCDEPKDQTVVGPALAAYRLEDTFGPDPTMIRANCLVQTTEWSACSKTCGMGISTRVTNDNASCRLEKQSRLCMVRPCEADLEENIKKGKKCIRTPKISKPIKFELSGCTSMKTYRAKFCGVCTDGRCCTPHRTTTLPVEFKCPDGEVMKKNMMFIKTCACHYNCPGDNDIFESLYYRKMYGDMA
B1: the “proliferation compared to the vehicle control” value in [22] was “higher level of proliferation”.
